Paper PMC5522996, “Big conductance calcium‐activated potassium channel openers control spasticity without sedation” (British Journal of Pharmacology, 2017)
Where two headings read alike, the source gives them in different places.

Experiments:
[1] = Plasma levels in toxicological studies, rats; type: in vivo; settings: both sexes, Sprague Dawley, rat, po; for concentration at 30 min: 30 min following 50 mg·kg^−1 p.o.
Protocol: Twenty‐eight day toxicology in rats and dogs for Investigational New Drug filing was performed by Charles Rivers (UK). Reproductive toxicology in rabbits was performed by Charles Rivers (Canada). Pharmacokinetic and/or toxicological doses ranged from 5 to 1000 mg·kg^−1 p.o. in Sprague Dawley male and female rats (n = 6‐26 per group), 50–200 mg·kg^−1 p.o. in male and female Beagle dogs (n = 6 per group) and 100–750 mg·kg^−1 p.o. in female New Zealand white rabbits (n = 9 per group). Results are expressed as mean ± SD.
The stability of compounds when subjected to hepatic and plasma degradation was assessed in vitro by Inpharmatica, Cambridge, UK. Compounds (1 μM) were incubated with either pooled mouse liver microsomes (0.1 mg protein mL^−1) or pooled mouse plasma at 37°C for 0, 5, 10, 20 and 40 min before termination with acetonitrile containing warfarin as an analytical internal standard. Samples were centrifuged, and the resultant supernatant analysed for parent compound. The mass responses at baseline were taken as the 100% reference values against which the disappearance of the compound was measured. The natural log of the % remaining values was used to generate linear plots of disappearance of the compounds. Half‐life values were calculated from the slope of these plots. Hepatocyte metabolism was assessed by Cyprotex, Macclesfield, and 10 μM VSN16R was incubated with primary mouse, rat, monkey (Macaque) and human hepatocytes for 1 h, and the presence of metabolites was assessed using liquid […] mass spectroscopy. The stability of VSN16R was assessed in vivo by Inpharmatica, Cyprotex and Charles Rivers, Cambridge. Blood (plasma) samples were obtained prior to and 5 min to 24 h after drug administration of 2–5 mg·kg^−1 i.v. or 5 mg·kg^−1 p.o. VSN16R into outbred mice and rats (n = 3 per time point). In addition, plasma, brain and spinal cord samples were obtained from ABH with spastic EAE. Immediately after blood collection, the brain and spinal cord were removed and then stored at −20°C prior to assay. […] Data are expressed as mean ± SEM. […]

WP2uvvA = assay: Bacterial reverse mutation, revertants per plate; type: cell-based, Escherichia coli
Protocol: (§1) Strain of Organism Treatment Dose Revertants per plate
(§2) First Mutation without Metabolic Stimulation
(§3) Second Mutation without Metabolic Stimulation
(§4) VSN16R was incubated at various concentrations with either TA1535, TA1537, TA98 and TA100 strains of Salmonella typhimurium, which carry mutations in genes involved in histidine synthesis, and WP2uvvA Escherichia coli. The bacteria are spread on agar plates with limiting histidine content and incubated for 48 h. The number of histidine gene negative to positive revertants was assessed in two experiments. The results represent the mean ± SD. n=3/group. This was performed by Charles

[2] = target: T1, fatty acid amide hydrolase (Homo sapiens, UniProt O00519); assay: Receptor binding profile of VSN16R; settings: 10µM VSN16R
T1 construct: purchased Cerep; Chantest; DiscoveRx; Multispan; MDS Pharma Services

TA98 = assay: Bacterial reverse mutation, revertants per plate; type: cell-based, Salmonella typhimurium
Protocol: as §1, §2, §3, §4

TA100 = assay: Bacterial reverse mutation, revertants per plate; type: cell-based, Salmonella typhimurium
Protocol: as §1, §2, §3, §4

TA1537 = assay: Bacterial reverse mutation, revertants per plate; type: cell-based, Salmonella typhimurium
Protocol: as §1, §2, §3, §4

TA1535 = assay: Bacterial reverse mutation, revertants per plate; type: cell-based, Salmonella typhimurium
Protocol: as §1, §2, §3, §4

healthy humans = assay: Phase I single dose: haematology and serum chemistry; type: in vivo, human; settings: Day 2
[3] = First Mutation without Metabolic Stimulation, 17µg
[4] = First Mutation without Metabolic Stimulation, 5000µg
[5] = Second Mutation without Metabolic Stimulation, 17µg
[6] = Second Mutation without Metabolic Stimulation, 5000µg

T1 sequence (O00519 whole entry): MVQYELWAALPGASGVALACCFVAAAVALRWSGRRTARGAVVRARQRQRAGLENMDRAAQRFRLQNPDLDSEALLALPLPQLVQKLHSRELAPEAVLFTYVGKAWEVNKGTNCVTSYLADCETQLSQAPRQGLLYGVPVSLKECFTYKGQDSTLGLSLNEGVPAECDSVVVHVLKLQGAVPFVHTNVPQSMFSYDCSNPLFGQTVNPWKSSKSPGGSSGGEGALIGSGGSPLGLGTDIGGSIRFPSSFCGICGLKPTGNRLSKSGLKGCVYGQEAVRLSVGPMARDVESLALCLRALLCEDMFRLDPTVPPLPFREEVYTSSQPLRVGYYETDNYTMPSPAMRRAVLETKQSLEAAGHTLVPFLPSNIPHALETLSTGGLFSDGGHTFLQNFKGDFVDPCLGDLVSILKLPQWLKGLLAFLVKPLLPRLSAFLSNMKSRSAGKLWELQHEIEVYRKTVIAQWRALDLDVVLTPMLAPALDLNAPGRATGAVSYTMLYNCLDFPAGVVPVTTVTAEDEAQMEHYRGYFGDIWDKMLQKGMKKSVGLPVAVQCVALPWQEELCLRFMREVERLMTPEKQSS

C[C@H](CO)NC(=O)c1cccc(/C=C\CCCC(=O)N(C)C)c1 [VSN16R]
Cmax ([1]; 1000 mg·kg^−1 p.o., read-out: Plasma level at Cmax): ≤ 368 µM
concentration at 30 min ([1]; read-out: VSN16R detected in plasma): 15 µM
concentration at 30 min ([1]; read-out: VSN16R detected in plasma (Mean ± SD)): 4907 ± 32.3 ng/mL
Revertants per plate (WP2uvvA; [3]): 5.3 ± 0.6
Revertants per plate (WP2uvvA; [4]): 1.3 ± 1.2
Revertants per plate (WP2uvvA; [5]): 10.3 ± 6.7
Revertants per plate (WP2uvvA; [6]): 8.0 ± 4.6
Activity [2]: Negligible Activity
Revertants per plate (TA98; [3]): 15.3 ± 4.7
Revertants per plate (TA98; [4]): 18.3 ± 7.1
Revertants per plate (TA98; [5]): 23.3 ± 1.2
Revertants per plate (TA98; [6]): 23.7 ± 1.2
Revertants per plate (TA100; [3]): 79.3 ± 7.6
Revertants per plate (TA100; [4]): 79.3 ± 5.5
Revertants per plate (TA100; [5]): 85.7 ± 6.7
Revertants per plate (TA100; [6]): 99.3 ± 5.5
Revertants per plate (TA1537; [3]): 13.3 ± 1.5
Revertants per plate (TA1537; [4]): 7.0 ± 1.7
Revertants per plate (TA1537; [5]): 12.3 ± 2.9
Revertants per plate (TA1537; [6]): 10.3 ± 2.9
Revertants per plate (TA1535; [3]): 9.0 ± 6.6
Revertants per plate (TA1535; [4]): 13.7 ± 2.1
Revertants per plate (TA1535; [5]): 14.0 ± 5.6
Revertants per plate (TA1535; [6]): 11.3 ± 3.5
Albumin (healthy humans; 25mg): 42 ± 1 g/L
Amylase (healthy humans; 25mg): 65 ± 21 U/L
Basophils (healthy humans; 25mg): 0.0 ± 0.0 109 cells/L
Bilirubin (healthy humans; 25mg): 14.9 ± 6.1 µmol/L
Calcium (healthy humans; 25mg): 2.40 ± 0.08 mmol/L
Chloride (healthy humans; 25mg): 104 ± 2 mmol/L
Cholesterol (healthy humans; 25mg): 4.79 ± 0.77 mmol/L
Creatinine (healthy humans; 25mg): 84 ± 10 µmol/L
Eosinophils (healthy humans; 25mg): 0.2 ± 0.1 109 cells/L
Globulin (healthy humans; 25mg): 28.8 ± 5.6 g/L
Glucose (healthy humans; 25mg): 4.78 ± 0.58 mmol/L
Haemoglobin (healthy humans; 25mg): 9.4 ± 0.5 mmol/L
Hematocrit (healthy humans; 25mg): 0.425 ± 0.021
Lymphocytes (healthy humans; 25mg): 1.9 ± 0.6 109 cells/L
Magnesium (healthy humans; 25mg): 0.8 ± 0.0 mmol/L
Monocytes (healthy humans; 25mg): 0.5 ± 0.1 109 cells/L
Neutrophils (healthy humans; 25mg): 2.5 ± 0.6 109 cells/L
Phosphate (healthy humans; 25mg): 1.20 ± 0.10 mmol/L
Potassium (healthy humans; 25mg): 4.27 ± 0.18 mmol/L
Red Blood Cells (healthy humans; 25mg): 4.94 ± 0.30 1012 cells/L
Sodium (healthy humans; 25mg): 141 ± 2 mmol/L
Triglycerides (healthy humans; 25mg): 1.26 ± 0.25 mmol/L
Urea (healthy humans; 25mg): 4.4 ± 0.9 mmol/L
White Blood Cells (healthy humans; 25mg): 5.2 ± 1.2 109 cells/L
Albumin (healthy humans; 800mg): 42 ± 1 g/L
Amylase (healthy humans; 800mg): 50 ± 12 U/L
Basophils (healthy humans; 800mg): 0.0 ± 0.0 109 cells/L
Bilirubin (healthy humans; 800mg): 11.4 ± 3.0 µmol/L
Calcium (healthy humans; 800mg): 2.35 ± 0.04 mmol/L
Chloride (healthy humans; 800mg): 104 ± 1 mmol/L
Cholesterol (healthy humans; 800mg): 4.68 ± 0.78 mmol/L
Creatinine (healthy humans; 800mg): 84 ± 10 µmol/L
Eosinophils (healthy humans; 800mg): 0.3 ± 0.1 109 cells/L
Globulin (healthy humans; 800mg): 28.9 ± 1.2 g/L
Glucose (healthy humans; 800mg): 5.51 ± 0.92 mmol/L
Haemoglobin (healthy humans; 800mg): 9.3 ± 0.5 mmol/L
Hematocrit (healthy humans; 800mg): 0.421 ± 0.016
Lymphocytes (healthy humans; 800mg): 1.8 ± 0.6 109 cells/L
Magnesium (healthy humans; 800mg): 0.8 ± 0.1 mmol/L
Monocytes (healthy humans; 800mg): 0.5 ± 0.1 109 cells/L
Neutrophils (healthy humans; 800mg): 2.7 ± 1.2 109 cells/L
Phosphate (healthy humans; 800mg): 1.02 ± 0.10 mmol/L
Potassium (healthy humans; 800mg): 4.19 ± 0.25 mmol/L
Red Blood Cells (healthy humans; 800mg): 4.87 ± 0.30 1012 cells/L
Sodium (healthy humans; 800mg): 142 ± 3 mmol/L
Triglycerides (healthy humans; 800mg): 1.55 ± 0.61 mmol/L
Urea (healthy humans; 800mg): 4.7 ± 0.4 mmol/L
White Blood Cells (healthy humans; 800mg): 5.0 ± 1.1 109 cells/L
